Laboratory results as given in patent US9758492B2, “IDO inhibitors” (Bristol-Myers Squibb Company, priority 2013, dated 2017).

Target: IDO (Homo sapiens, UniProt P14902)
Experiment: LLE_IDO_ABS_DR (IDO assay)

Chain of IDO (P14902 whole entry): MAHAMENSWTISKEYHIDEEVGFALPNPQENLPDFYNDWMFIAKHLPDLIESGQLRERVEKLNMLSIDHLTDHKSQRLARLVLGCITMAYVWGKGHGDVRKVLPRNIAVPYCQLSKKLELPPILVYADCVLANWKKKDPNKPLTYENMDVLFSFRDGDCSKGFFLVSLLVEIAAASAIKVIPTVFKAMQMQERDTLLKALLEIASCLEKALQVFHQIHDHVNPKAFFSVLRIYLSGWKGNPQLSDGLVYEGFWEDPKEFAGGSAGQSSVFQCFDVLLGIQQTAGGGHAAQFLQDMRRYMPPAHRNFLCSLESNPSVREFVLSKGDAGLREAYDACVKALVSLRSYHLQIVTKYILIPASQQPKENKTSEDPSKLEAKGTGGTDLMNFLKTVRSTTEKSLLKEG

Row | SMILES | IC50
1 | CNC(=O)c1ccccc1NC(=O)Nc1cc(-c2ccccc2-c2nnn[nH]2)ccc1N(CC(C)C)CC(C)C [Example 248, 2-(3-(4-(diisobutylamino)-2′-(1H-tetrazol-5-yl)-[1,1′-biphenyl]-3-yl)ureido)-N-methylbenzamide] | 5070 nM
2 | CC(C)CN(CC(C)C)c1ccc(-c2ccccc2-c2nnn[nH]2)cc1NC(=O)NCC(C)(C)C [Example 141, 1-(4-(diisobutylamino)-2′-(1H-tetrazol-5-yl)biphenyl-3-yl)-3-neopentylurea] | 430 nM
3 | CCN(CC(C)(C)C)c1ccc(-c2cc(F)ccc2C(=O)O)cc1NC(=O)Nc1ccc(C)cc1 [Example 113, 4′-(ethyl(neopentyl)amino)-5-fluoro-3′-(3-p-tolylureido)biphenyl-2-carboxylic acid] | 400 nM
4 | Cc1ccc(NC(=O)Nc2cc(-c3ccccc3-c3nnn[nH]3)ccc2N2CCC(c3nc(C)no3)C2)cn1 (stereo not drawn) [Example 388] | 10000 nM
5 | C#CCN(CC(C)C)c1ccc(-c2cc(F)ccc2C(=O)O)cc1NC(=O)Nc1ccc(C)cc1 [Example 23, 5-Fluoro-4′-(isobutyl(prop-2-yn-1-yl)amino)-3′-(3-(p-tolyl)ureido)-[1,1′-biphenyl]-2-carboxylic acid] | 450 nM
6 | Cc1ccc(NC(=O)Nc2cc(-c3ccncc3C(=O)O)ccc2N(CC(C)C)CC(C)C)cc1 [Example 159, 4-(4-(diisobutylamino)-3-(3-p-tolylureido)phenyl) nicotinic acid] | 980 nM
7 | CC(C)CN(c1ccc(-c2cc(F)ccc2C(=O)O)cc1NC(=O)Nc1ccccc1C(F)(F)F)C1CCCCC1 [Example 163, 4′-(cyclohexyl (isobutyl)amino)-5-fluoro-3′-(3-(2-(trifluoromethyl)phenyl)ureido) biphenyl-2-carboxylic acid] | 1030 nM
8 | O=C(Nc1ccc(OC(F)(F)F)cc1)Nc1cc(-c2ccccc2-c2nnn[nH]2)ccc1N1CCC(F)(F)C1 [Example 316, 1-(4-(3,3-difluoropyrrolidin-1-yl)-2′-(1H-tetrazol-5-yl)-[1,1′-biphenyl]-3-yl)-3-(4-(trifluoromethoxy)phenyl)urea] | 7720 nM
9 | COc1ccccc1NC(=O)Nc1cc(-c2ccccc2-c2nnn[nH]2)ccc1N(CC(C)C)CC(C)C [Example 281, 1-(4-(diisobutylamino)-2′-(1H-tetrazol-5-yl)biphenyl-3-yl)-3-(2-methoxyphenyl)urea] | 1450 nM
10 | COc1ccc(-c2ccc(N(CCC(F)(F)F)CC3CC3)c(NC(=O)Nc3ccc(C)cc3)c2)cc1C(=O)O [Example 65, 4′-((cyclopropylmethyl) (3,3,3-trifluoropropyl)amino)-4-methoxy-3′-(3-p-tolylureido) biphenyl-3-carboxylic acid] | 3700 nM
11 | Cc1ccc(NC(=O)Nc2cc(-c3cc(F)ccc3C(=O)O)ccc2N(CCC(F)(F)F)Cc2ccccc2Cl)cc1 [Example 18, 4′-((2-Chlorobenzyl)(3,3,3-trifluoropropyl)amino)-5-fluoro-3′-(3-(p-tolyl)ureido)-[1,1′-biphenyl]-2-carboxylic acid] | 630 nM
12 | CC(C)CN(CC(C)C)c1ccc(-c2ccccc2-c2nnn[nH]2)cc1NC(=O)Nc1ccc(S(C)(=O)=O)cc1F [Example 284, 1-(4-(diisobutylamino)-2′-(1H-tetrazol-5-yl)-[1,1′-biphenyl]-3-yl)-3-(2-fluoro-4-(methylsulfonyl)phenyl)urea] | 2090 nM
13 | Cc1ccc(NC(=O)Nc2cc(-c3ccoc3C(=O)O)ccc2N(CC(C)C)CC(C)C)cc1 [Example 152, 3-(4-(diisobutylamino)-3-(3-p-tolylureido)phenyl)furan-2-carboxylic acid] | 770 nM
14 | CC(C)CN(CC(C)C)c1ccc(-c2ccccc2-c2nnn[nH]2)cc1NC(=O)Nc1ccccc1C1CC1 [Example 274, 1-(2-cyclopropylphenyl)-3-(4-(diisobutylamino)-2′-(1H-tetrazol-5-yl)-[1,1′-biphenyl]-3-yl)urea] | 460 nM
15 | CC(C)CN(CC(C)C)c1ccc(-c2ccccc2-c2nnn[nH]2)cc1NC(=O)Nc1ccccc1OC(F)F [Example 280, 1-(2-(difluoromethoxy)phenyl)-3-(4-(diisobutylamino)-2′-(1H-tetrazol-5-yl)biphenyl-3-yl)urea] | 2390 nM

Continued by falling IC50, values first:

Row | IC50 | SMILES
16 | 390 nM | O=C(Nc1cc(-c2ccccc2-c2nnn[nH]2)ccc1N(CCC(F)(F)F)Cc1ccc(C(F)(F)F)cc1)Nc1ccccc1C(F)(F)F [Example 328, 1-(2′-(1H-tetrazol-5-yl)-4-((4-(trifluoromethyl)benzyl)(3,3,3-trifluoropropyl)amino)-[1,1′-biphenyl]-3-yl)-3-(2-(trifluoromethyl)phenyl)urea]
17 | 270 nM | Cc1ccc(NC(=O)Nc2cc(-c3ccc(F)cc3NS(=O)(=O)C(F)(F)F)ccc2N(CC(C)C)CC(C)C)cc1 [Example 81, N-(4′-(diisobutylamino)-4-fluoro-3′-(3-p-tolylureido)biphenyl-2-yl)-1,1,1-trifluoromethane-sulfonamide]
18 | 210 nM | Cc1ccc(NC(=O)Nc2cc(-c3ccccc3-c3nnn[nH]3)ccc2N(C)c2ccccc2C(C)(C)C)cc1 [Example 210, 1-(4-((2-(tert-butyl)phenyl)(methyl)amino)-2′-(1H-tetrazol-5-yl)-[1,1′-biphenyl]-3-yl)-3-(p-tolyl)urea]
19 | 150 nM | CCN(CCOC)c1ccc(-c2ccccc2-c2nnn[nH]2)cc1NC(=O)Nc1ccc(C)cc1 [Example 73, 1-(4-(ethyl(2-methoxyethyl)amino)-2′-(1H-tetrazol-5-yl)biphenyl-3-yl)-3-p-tolylurea]
20 | 150 nM | CC(C)CN(CC(C)C)c1ccc(-c2ccccc2-c2nnn[nH]2)cc1NC(=O)Nc1ccc2ncsc2c1 [Example 143, 1-(benzo[d]thiazol-6-yl)-3-(4-(diisobutylamino)-2′-(1H-tetrazol-5-yl)biphenyl-3-yl)urea]
21 | 110 nM | CC(C)CN(CC(C)C)c1ccc(-c2ccccc2-c2nnn[nH]2)cc1NC(=O)Nc1ccc(F)c(Cl)c1 [Example 286, 1-(3-chloro-4-fluorophenyl)-3-(4-(diisobutylamino)-2′-(1H-tetrazol-5-yl)biphenyl-3-yl)urea]
22 | 20 nM | Cc1ccc(NC(=O)Nc2cc(-c3cc(F)ccc3C(=O)O)ccc2N(CC(C)C)C2CCCC2)cc1 [Example 171, 4′-(cyclopentyl(isobutyl)amino)-5-fluoro-3′-(3-p-tolylureido)biphenyl-2-carboxylic acid]
23 | 20 nM | O=C(Nc1ccc(F)cc1F)Nc1cc(-c2ccccc2-c2nnn[nH]2)ccc1N(CCC(F)(F)F)Cc1ccc(C(F)(F)F)cc1 [Example 330, 1-(2′-(1H-tetrazol-5-yl)-4-((4-(trifluoromethyl)benzyl)(3,3,3-trifluoropropyl)amino)-[1,1′-biphenyl]-3-yl)-3-(2,4-difluorophenyl) urea]
24 | 20 nM | CC(C)CN(c1ccc(-c2ccccc2C(=O)O)cc1NC(=O)Nc1ccc(F)cc1F)C(C)C [Example 157, 3′-(3-(2,4-difluorophenyl)ureido)-4′-(isobutyl(isopropyl)amino)biphenyl-2-carboxylic acid]
25 | 10 nM | Cc1ccc(NC(=O)Nc2cc(-c3ccccc3C(=O)O)ccc2N(CC(C)C)C2CCCC2)cc1 [Example 172, 4′-(cyclopentyl(isobutyl)amino)-3′-(3-p-tolylureido)biphenyl-2-carboxylic acid]
26 | 9.82 nM | CCCCN(CCCC)c1ccc(-c2ccccc2-c2nnn[nH]2)cc1NC(=O)Nc1ccc(C)cc1 [Example 88, 1-(4-(dibutylamino)-2′-(1H-tetrazol-5-yl)biphenyl-3-yl)-3-p-tolylurea]
27 | 7.97 nM | CC(C)CN(CC(C)C)c1ccc(-c2ccccc2-c2nnn[nH]2)cc1NC(=O)Nc1cccc(F)c1F [Example 263, 1-(2,3-difluorophenyl)-3-(4-(diisobutylamino)-2′-(1H-tetrazol-5-yl)-[1,1′-biphenyl]-3-yl)urea]
28 | 6.48 nM | CC(C)CN(CC(C)C)c1ccc(-c2ccccc2-c2nnn[nH]2)cc1NC(=O)Nc1ccc(C#N)cc1F [Example 260]
29 | 6.45 nM | CC(C)CN(CCC1CC1)c1ccc(-c2ccccc2-c2nnn[nH]2)cc1NC(=O)Nc1ccccc1F [Example 133, 1-(4-((2-cyclopropylethyl) (isobutyl)amino)-2′-(1H-tetrazol-5-yl)biphenyl-3-yl)-3-(2-fluorophenyl)urea]
30 | 4.76 nM | [2H]C([2H])(C(C)C)N(c1ccc(-c2ccccc2-c2nnn[nH]2)cc1NC(=O)Nc1ccc(C)cc1)C1CCCCC1 [Example 29, 1-(4-(Cyclohexyl(1,1-dideutero-2-methylpropyl)amino)-2′-(1H-tetrazol-5-yl)biphenyl-3-yl)-3-p-tolylurea]
31 | 4.55 nM | CCCN(c1ccc(-c2ccccc2-c2nnn[nH]2)cc1NC(=O)Nc1ccc(C)cc1)C1CCCC1 [Example 169, 1-(4-(cyclopentyl(propyl)amino)-2′-(1H-tetrazol-5-yl)biphenyl-3-yl)-3-p-tolylurea]
32 | 4.03 nM | Cc1ccc(NC(=O)Nc2cc(-c3ccccc3-c3nnn[nH]3)ccc2N(CCC(F)(F)F)Cc2ccc(C(F)(F)F)cc2)cc1 [Example 329, 1-(2′-(1H-tetrazol-5-yl)-4-((4-(trifluoromethyl)benzyl)(3,3,3-trifluoropropyl)amino)-[1,1′-biphenyl]-3-yl)-3-(p-tolyl)urea]
33 | 4.01 nM | [2H]C([2H])(C(C)C)N(c1ccc(-c2cc(F)ccc2C(=O)O)cc1NC(=O)Nc1ccccc1F)C1CCCCC1 [Example 34, 4′-(Cyclohexyl(1,1-dideutero-2-methylpropyl)amino)-5-fluoro-3′-(3-(2-fluorophenyl)ureido)biphenyl-2-carboxylic acid]
34 | 3.8 nM | Cc1ccc(NC(=O)Nc2cc(-c3ccccc3-c3nnn[nH]3)ccc2N(CC2CC2)C2CCCCC2)cc1 [Example 82, 1-(4-(cyclohexyl (cyclopropylmethyl)amino)-2′-(1H-tetrazol-5-yl)biphenyl-3-yl)-3-p-tolylurea]
35 | 2.67 nM | CC(C)CN(c1cc(F)c(-c2cc(F)ccc2C(=O)O)cc1NC(=O)Nc1ccc(F)cc1F)C1CCCCC1 [Example 226, 4′-(cyclohexyl(isobutyl)ami-no)-5′-(3-(2,4-difluorophenyl)ureido)-2′,5-difluoro-[1,1′-biphenyl]-2-carboxylic acid]
36 | 2.14 nM | CC(C)CN(c1cc(F)c(-c2ccccc2C(=O)O)cc1NC(=O)Nc1ccc(F)cc1F)C1CCCCC1 [Example 230, 4′-(cyclohexyl(isobutyl)ami-no)-5′-(3-(2,4-difluorophenyl)ureido)-2′-fluorobiphenyl-2-carboxylic acid]
